From patent EP0187057A1, “2-Phenyl-isopropyl-allophanate, preparation and pharmaceutical application” (priority 1984, dated 1986)
“Also recorded” adds a separate entry of the source.

How the values were obtained:
crises psychomotrices = experiment: Psychomotor seizures induced by low-frequency transcranial electrical stimulation; type: in vivo, souris; conditions: for Pourcentage de souris protégées une heure après traitement: groupes de 20 souris; for ED50: Mus musculus, po, read-out: DE50 capable de protéger 50 % des animaux contre les crises psychomotrices
Text: (§1) Propriétés anticonvulsivantes : • On a effectué, pour déterminer ces propriétés anticonvulsivantes, des expérimentations sur le SCS 289 en procédant à des essais de protection : • - chez le lapin soumis à une transélectrification cranienne génératrice de crises épileptiformes de type "grand mal" ou recevant une infusion veineuse de pentétrazol provoquant l'apparition de myoclonies palpébrales; • - chez la souris recevant, par voie sous-cutanée des doses croissantes de pentétrazol entraînant convulsions et mort ou soumise à une transélectrification transcranienne à basse fréquence génératrice de crises psychomotrices.
On a également recherché si le SCS 289 était susceptible de protéger la souris contre le choc psychomoteur induit par une stimulation transcranienne à basse fréquence qui provoque, chez l'animal, un bref comportement de désorientation rappelant les attaques psychomotrices de l'homme.
Vis-à-vis des crises psychomotrices provoquées chez la souris par une stimulation électrique transcranienne à basse fréquence, le SCS 35 apparait plus actif que le SCS 289 : […]

[1] = test system: myoclonies palpébrales provoquées par l'infusion veineuse de pentétrazol; experiment: Intravenous pentetrazol infusion producing palpebral myoclonus (threshold seizures); type: in vivo, lapin; conditions: reference anticonvulsants, essais croisés, unit not given
Text: as §1
Les résultats quant à la protection contre les crises pentétrazoliques liminaires génératrices de myaclonies palpébrales figurent dans les tableaux ci-après.
L'administration préalable de SCS 289 retarde l'apparition des myoclonies palpébrales provoquées par l'infusion veineuse de pentétrazol.
Une expérimentation similaire pratiquée en essais croisés a donné les résultats suivants pour divers anticonvulsivants de référence : […]

[2] = test system: crises épileptiformes consécutives à l'électrochoc; experiment: Maximal electroshock producing epileptiform 'grand mal' seizures (1st and 2nd electroshock); type: in vivo, lapin; conditions: for % d'animaux protégés complètement: one hour before second electroshock, groups of ten rabbits
Text: as §1
Ne considérant comme significative, que la protection complète, les traitements pratiqués une heure avant le second électrochoc ont conféré les protection suivantes (sur groupes de dix lapins) :
Si, par ailleurs, on considère la protection contre les crises toniques (hyperextension des pattes postérieures), il apparaît également une synergie particulièrement aux doses associées de 200 mg/kg de produits.

crises pentétrazoliques = experiment: Convulsant and lethal effects of subcutaneous pentetrazol (125 mg/kg); type: in vivo, souris
Text: as §1
Pour déceler une synergie d'action antagoniste vis-à-vis des effets convulsivants et létaux du pentétrazol injecté par voie sous-cutanée chez la souris à la dose de 125 mg/kg, on a déterminé avec plus de précision la DE50 du SCS 289 et on a recherché si l'association avec le SCS 35 apportait un surcroit appréciable d'activité.
On n'a retenu comme significative que la protection à l'égard des effets létaux observés sur 24 heures.

NC(=O)NC(=O)Cc1ccccc1 [Phénacétamide]
Pourcentage de souris protégées une heure après traitement (crises psychomotrices; 10 mg/kg voie digestive): 40% | Pourcentage de souris protégées une heure après traitement (crises psychomotrices; 25 mg/kg voie digestive): 70% | Pourcentage de souris protégées une heure après traitement (crises psychomotrices; 50 mg/kg voie digestive): 85% | Pourcentage de souris protégées une heure après traitement (crises psychomotrices; 100 mg/kg voie digestive): 100% | ED50 (crises psychomotrices; souris, voie digestive): ~14 mg/kg | Elévation du seuil myoclonique ([1]; 25 mg/kg): 32,4 | Elévation du seuil myoclonique ([1]; 50 mg/kg): 43,1 | Elévation du seuil myoclonique ([1]; 100 mg/kg): 58,2

CCOC(=O)N(C(N)=O)c1ccccc1 [SCS 35, phényl-2 allophanate d'éthyle]
% d'animaux protégés complètement ([2]; 100 mg/kg): Nul | % d'animaux protégés contre les seules crises toniques ([2]; 100 mg/kg, hyperextension tonique des pattes postérieures): 60% | % d'animaux protégés contre les seules crises toniques ([2]; 200 mg/kg): 80% | % d'animaux protégés complètement ([2]; 200 mg/kg): 10% | Pourcentage de souris protégées une heure après traitement (crises psychomotrices; 5 mg/kg voie digestive): 60% | Pourcentage de souris protégées une heure après traitement (crises psychomotrices; 10 mg/kg voie digestive): 90% | Pourcentage de souris protégées une heure après traitement (crises psychomotrices; 2,5 mg/kg voie digestive): 40% | ED50 (crises psychomotrices; souris, voie digestive): 3.5 mg/kg | DE50 capable de protéger 50 % des animaux contre les crises psychomotrices (crises psychomotrices; souris, voie digestive): 3,5 mg/kg | % de protection vis-à-vis de la létalité pentétrazolique (crises pentétrazoliques; 10 mg/kg): 0% | % de protection vis-à-vis de la létalité pentétrazolique (crises pentétrazoliques; 20 mg/kg): 10% | % de protection vis-à-vis de la létalité pentétrazolique (crises pentétrazoliques; 50 mg/kg): 50% | ED50 (crises pentétrazoliques; Mus musculus, sc, 24 h, souris, read-out: DE50 à l'égard des crises pentétrazoliques maximales et létales): 55 mg/kg

CCCC(CCC)C(=O)O [Valproate de sodium]
protection contre les crises électriques maximales ([2]; 500 mg/kg, same experimental conditions): absolument inefficace; also recorded: inactif | Pourcentage de souris protégées une heure après traitement (crises psychomotrices; 50 mg/kg voie digestive): 15% | Pourcentage de souris protégées une heure après traitement (crises psychomotrices; 100 mg/kg voie digestive): 40% | Pourcentage de souris protégées une heure après traitement (crises psychomotrices; 250 mg/kg voie digestive): 85% | ED50 (crises psychomotrices; souris, voie digestive): ~120 mg/kg | DL50/DE50 / Crises psycho-motrices (crises psychomotrices; index thérapeutique absolu, souris): 15 | DE50 psychodépressive / DE50 anticonvulsivante / Crises psycho-motrices (crises psychomotrices; index thérapeutique relatif, psychodépressive = mean of DE50 for agilité, force musculaire, motricité, curiosité): 7 | Elévation du seuil myoclonique ([1]; 100 mg/kg): 54,7 | Elévation du seuil myoclonique ([1]; 500 mg/kg): 65,5
